Some results are limits rather than exact numbers.

In assay [1] the target is Anti-cotinine antibody (SEQ ID NO: 11 / SEQ ID NO: 12, rabbit variable region with human IgG1 Fc domain). Kind of assay: Binding of anti-cotinine antibody to ARM compounds by SPR, Biacore T200, 37° C. (Example 202). Particulars: pH 7.4, rabbit variable region/human IgG1 Fc antibody captured on protein A. Summed up: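 Run at 37° C. in 10 mM HEPES pH 7.4, 150 mM NaCl, 0.005% P20, 1% DMSO. Compound titrated from 200 nM (five 3-fold steps) over protein A-captured antibody, with 200/2000 s association/dissociation. 1:1 kinetic fit gave kon, koff, Kd and residence time (1/koff); pKd averaged where runs repeated.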
A general note: SPR reads the build-up and loss of mass on a sensor chip optically.

Assay [2] has as its target human alpha1 nicotinic acetylcholine (nACh) receptor (Homo sapiens, UniProt P02708+Q07001). Kind of assay: Nicotinic acetylcholine receptor antagonism assay, IONFlux automated patch clamp (Example 203). Particulars: for Emax at 10 µM: maximum percentage antagonism at maximum concentration tested 10 μM; for IC50: nAChR antagonism, ACh stimulated, patch clamp. The format is cell-based. In outline: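 Human α1 nAChR-expressing cells were preincubated with compound (top 10 μM or 100 μM), then stimulated with 10 mM ACh; peak currents were recorded by IONFlux automated patch clamp. Percent inhibition versus ACh-alone control was vehicle- and rundown-corrected, then fitted to give IC50, with maximal antagonism at the top concentration; recordings with control current <500 pA were excluded.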
(In general: Patch clamp records ionic current or voltage across a cell membrane.)

human alpha1 nicotinic acetylcholine (nACh) receptor, sequence (P02708 21-457): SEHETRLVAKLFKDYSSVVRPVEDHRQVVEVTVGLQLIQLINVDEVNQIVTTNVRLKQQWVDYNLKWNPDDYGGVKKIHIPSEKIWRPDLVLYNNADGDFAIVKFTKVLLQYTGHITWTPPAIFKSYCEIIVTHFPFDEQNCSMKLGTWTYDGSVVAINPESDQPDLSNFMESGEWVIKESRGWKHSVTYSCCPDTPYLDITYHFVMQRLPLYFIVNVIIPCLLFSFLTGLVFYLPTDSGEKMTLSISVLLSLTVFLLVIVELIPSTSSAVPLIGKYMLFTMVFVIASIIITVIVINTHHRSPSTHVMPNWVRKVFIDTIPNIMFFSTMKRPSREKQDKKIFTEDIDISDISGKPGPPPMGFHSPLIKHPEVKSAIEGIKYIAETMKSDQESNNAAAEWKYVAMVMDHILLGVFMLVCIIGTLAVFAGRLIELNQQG
human alpha1 nicotinic acetylcholine (nACh) receptor, sequence (P11230 24-501 partner): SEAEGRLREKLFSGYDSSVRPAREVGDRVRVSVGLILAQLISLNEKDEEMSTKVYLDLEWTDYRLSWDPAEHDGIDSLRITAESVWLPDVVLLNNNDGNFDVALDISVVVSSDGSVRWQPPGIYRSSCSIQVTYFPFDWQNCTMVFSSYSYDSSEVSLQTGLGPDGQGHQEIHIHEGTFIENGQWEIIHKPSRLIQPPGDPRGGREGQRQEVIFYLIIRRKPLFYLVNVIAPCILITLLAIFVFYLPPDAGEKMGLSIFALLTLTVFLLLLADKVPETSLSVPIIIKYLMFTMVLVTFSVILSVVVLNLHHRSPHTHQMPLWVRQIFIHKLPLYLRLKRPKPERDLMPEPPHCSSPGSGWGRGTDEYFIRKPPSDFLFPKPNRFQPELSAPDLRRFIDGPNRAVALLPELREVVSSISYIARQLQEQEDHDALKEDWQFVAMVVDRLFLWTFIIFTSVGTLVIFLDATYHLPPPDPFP
human alpha1 nicotinic acetylcholine (nACh) receptor, sequence (Q07001 22-517): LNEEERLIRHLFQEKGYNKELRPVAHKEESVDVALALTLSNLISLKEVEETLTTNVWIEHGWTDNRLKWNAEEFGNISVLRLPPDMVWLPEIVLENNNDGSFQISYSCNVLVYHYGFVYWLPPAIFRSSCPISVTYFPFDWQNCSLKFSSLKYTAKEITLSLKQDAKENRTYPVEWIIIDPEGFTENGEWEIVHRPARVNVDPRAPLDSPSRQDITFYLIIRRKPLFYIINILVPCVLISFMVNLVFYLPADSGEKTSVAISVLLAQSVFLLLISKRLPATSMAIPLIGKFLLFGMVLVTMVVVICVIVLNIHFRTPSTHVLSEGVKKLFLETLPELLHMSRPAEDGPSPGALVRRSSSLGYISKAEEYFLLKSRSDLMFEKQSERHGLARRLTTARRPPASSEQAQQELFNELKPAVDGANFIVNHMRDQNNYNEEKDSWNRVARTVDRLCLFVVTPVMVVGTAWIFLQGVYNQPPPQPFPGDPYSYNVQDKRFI

By IC50 is commonly meant the concentration that gives 50% inhibition. A lower IC50 goes with greater potency. On to `CN1C(=O)C[C@H](C(=O)NCCOCCOCCOCCOCCOCCC(=O)N[C@@H]2C[C@H](NC(C)(C)C)CC[C@@H]2N2CC[C@H](Nc3ncnc4ccc(C(F)(F)F)cc34)C2=O)[C@H]1c1cccnc1` [Example 37], for which, in assay [1], the “pKd of Antibody for ARM Compound of Formula (I)” value (from here on “pKd of Antibody”) turned out to be 9.7475. Besides, in assay [2] (read-out: Maximum Response (%)), the Emax at 10 µM was 7.3%. Moreover, in assay [2], the IC50 is > 10 µM.
For `CN1C(=O)C[C@H](C(=O)NCCO[C@H]2CC[C@H](OCCCC(=O)N[C@H]3CC[C@H](C(=O)N[C@@H]4C[C@H](NC(C)(C)C)CC[C@@H]4N4CC[C@H](Nc5ncnc6ccc(C(F)(F)F)cc56)C4=O)CC3)CC2)[C@H]1c1cccnc1` [Example 10], the “pKd of Antibody” value in assay [1] is 9.199. The Emax at 33.33 µM in assay [2] (maximum percentage antagonism at maximum concentration tested 33.33 μM, read-out: Maximum Response (%)) came to 48%. For the same compound, the IC50 in assay [2] is > 33.3 µM.
`CN1C(=O)C[C@H](C(=O)NCCOCCOCCOCCOCCOCCOCCC(=O)N[C@@H]2C[C@H](NC(C)(C)C)CC[C@@H]2N2CC[C@H](Nc3ncnc4ccc(C(F)(F)F)cc34)C2=O)[C@H]1c1cccnc1` [Example 38]: in assay [1], the “pKd of Antibody” value worked out at 9.611. Moreover, in assay [2] (read-out: Maximum Response (%)), the Emax at 10 µM was -2.2%. In addition, the IC50 in assay [2] is > 10 µM.
As to `CC(C)N(C)[C@@H]1CC[C@H](N2CC[C@H](Nc3ncnc4ccc(C(F)(F)F)cc34)C2=O)[C@H](NC(=O)[C@H]2CC[C@H](NC(=O)CCCO[C@H]3CC[C@H](OCCNC(=O)[C@H]4CC(=O)N(C)[C@@H]4c4cccnc4)CC3)CC2)C1` [Example 1, (2S,3S)-N-(2-(((1R,4S)-4-(4-(((1R,4R)-4-(((1R,2S,5R)-5-(Isopropyl(methyl)amino)-2-((S)-2-oxo-3-((6-(trifluoromethyl)quinazolin-4-yl)amino)pyrrolidin-1-yl)cyclohexyl)carbamoyl)cyclohexyl)amino)-4-oxobutoxy)cyclohexyl)oxy)ethyl)-1-methyl-5-oxo-2-(pyridin-3-yl)pyrrolidine-3-carboxamide], the “pKd of Antibody” value in assay [1] turned out to be 9.654. For the same compound, in assay [2] (maximum percentage antagonism at maximum concentration tested 100 μM, read-out: Maximum Response (%)), the Emax at 100 µM stood at 25.6%. Also, in assay [2], the IC50 was determined as 84.6 µM.
